Results taken from patent publication US10597388B2, “Pyridazinone herbicides” (FMC CORPORATION, priority 2014, dated 2020).

Experiments:
Type in all cases: in vivo
[1] = system: beggarticks (hairy beggarticks, Bidens pilosa); experiment: Test E greenhouse herbicide test, pre- and postemergence
Summary of the method: (§1)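 For each species, sown seed in silt loam and young plants (2 to 18 cm) in a peat/vermiculite medium were each treated with compound dissolved in surfactant-containing, non-phytotoxic solvent. After 14 to 21 d under greenhouse conditions, effects were visually rated, 100 meaning complete control.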

[2] = system: crabgrass, Brazilian (Brazilian crabgrass, Digitaria horizontalis); experiment: as above
Summary of the method: as §1

[3] = system: crabgrass, large (large crabgrass, Digitaria sanguinalis); experiment: as above; details: Preemergence
Summary of the method: as §1

[4] = system: field bindweed (Convolvulus arvensis); experiment: as above
Summary of the method: as §1

[5] = system: foxtail, giant (giant foxtail, Setaria faberii); experiment: as above; details: Preemergence
Summary of the method: as §1

[6] = system: goosegrass (Eleusine indica); experiment: as above; details: Preemergence
Summary of the method: as §1

[7] = system: horseweed (Conyza canadensis); experiment: as above
Summary of the method: as §1

kochia (Kochia scoparia) = experiment: as above
Summary of the method: as §1

[8] = system: nightshade (eastern black nightshade, Solanum ptycanthum); experiment: as above; details: Preemergence
Summary of the method: as §1

[9] = system: panicum, fall (fall panicum, Panicum dichotomiflorum); experiment: as above
Summary of the method: as §1

[10] = system: ragweed (common ragweed, Ambrosia elatior); experiment: as above
Summary of the method: as §1

[11] = system: sandbur (southem sandbur, Cenchrus echinatus); experiment: as above
Summary of the method: as §1

[12] = system: surinam grass (Brachiaria decumbens); experiment: as above; details: Preemergence
Summary of the method: as §1

[13] = system: waterhemp (common waterhemp, Amaranthus rudis); experiment: as above
Summary of the method: as §1

[14] = system: waterhemp_RES1 (ALS & Triazine resistant common waterhemp, Amaranthus rudis); experiment: Test E greenhouse herbicide test, postemergence
Summary of the method: (§2)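 Visual injury scored 0 (no effect) to 100 (complete control) versus untreated plants, 14 to 21 d after treatment in the greenhouse. Plants were treated postemergence at 1- to 4-leaf stage, 2–18 cm height, in peat-moss/vermiculite medium.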

[15] = system: waterhemp_RES2 (ALS & HPPD resistant common waterhemp, Amaranthus rudis); experiment: Test E greenhouse herbicide test, postemergence
Summary of the method: as §2

[16] = 62 g ai/ha, Postemergence, scale 0 to 100 (0 no effect, 100 complete control)
[17] = 62 g ai/ha, Preemergence, scale 0 to 100 (0 no effect, 100 complete control)
[18] = 125 g ai/ha, Postemergence, scale 0 to 100 (0 no effect, 100 complete control)
[19] = 125 g ai/ha, Preemergence, scale 0 to 100 (0 no effect, 100 complete control)
[20] = Postemergence, 16 g ai/ha, visual, scale 0 no effect to 100 complete control
[21] = Postemergence, 31 g ai/ha, visual, scale 0 no effect to 100 complete control
[22] = Preemergence, 16 g ai/ha, scale 0 to 100, 0 no effect, 100 complete control
[23] = Preemergence, 31 g ai/ha, scale 0 to 100, 0 no effect, 100 complete control
[24] = 62 g ai/ha, scale 0 to 100 (0 no effect, 100 complete control)
[25] = 125 g ai/ha, scale 0 to 100 (0 no effect, 100 complete control)
[26] = 16 g ai/ha, scale 0 to 100, 0 no effect, 100 complete control
[27] = 31 g ai/ha, scale 0 to 100, 0 no effect, 100 complete control
[28] = 16 g ai/ha, visual, scale 0 no effect to 100 complete control
[29] = 31 g ai/ha, visual, scale 0 no effect to 100 complete control

SMILES: CCCC(=O)Oc1c(C)nn(C)c(=O)c1-c1c(C)sc2ccc(C)cc12 [Compound 105]
- Plant response rating, Beggarticks [1, 16]: 100
- Plant response rating, Beggarticks [1, 17]: 100
- Plant response rating, Beggarticks [1, 18]: 100
- Plant response rating, Beggarticks [1, 19]: 100
- Plant response rating, Beggarticks [1, 20]: 80
- Plant response rating, Beggarticks [1, 21]: 90
- Plant response rating, Beggarticks [1, 22]: 90
- Plant response rating, Beggarticks [1, 23]: 80
- Plant response rating, Crabgrass, Brazil [2, 16]: 40
- Plant response rating, Crabgrass, Brazil [2, 17]: 35
- Plant response rating, Crabgrass, Brazil [2, 18]: 50
- Plant response rating, Crabgrass, Brazil [2, 19]: 75
- Plant response rating, Crabgrass, Brazil [2, 20]: 5
- Plant response rating, Crabgrass, Brazil [2, 21]: 20
- Plant response rating, Crabgrass, Brazil [2, 23]: 0
- Plant response rating, Crabgrass, Large [3, 24]: 50
- Plant response rating, Crabgrass, Large [3, 25]: 75
- Plant response rating, Crabgrass, Large [3, 26]: 0
- Plant response rating, Crabgrass, Large [3, 27]: 0
- Plant response rating, Field Bindweed [4, 16]: 75
- Plant response rating, Field Bindweed [4, 17]: 50
- Plant response rating, Field Bindweed [4, 18]: 95
- Plant response rating, Field Bindweed [4, 19]: 70
- Plant response rating, Field Bindweed [4, 20]: 75
- Plant response rating, Field Bindweed [4, 21]: 80
- Plant response rating, Field Bindweed [4, 22]: 20
- Plant response rating, Field Bindweed [4, 23]: 20
- Plant response rating, Foxtail, Giant [5, 24]: 35
- Plant response rating, Foxtail, Giant [5, 25]: 75
- Plant response rating, Foxtail, Giant [5, 26]: 0
- Plant response rating, Foxtail, Giant [5, 27]: 0
- Plant response rating, Goosegrass [6, 24]: 0
- Plant response rating, Goosegrass [6, 25]: 10
- Plant response rating, Goosegrass [6, 26]: 0
- Plant response rating, Goosegrass [6, 27]: 0
- Plant response rating, Horseweed [7, 16]: 85
- Plant response rating, Horseweed [7, 17]: 100
- Plant response rating, Horseweed [7, 19]: 100
- Plant response rating, Horseweed [7, 20]: 80
- Plant response rating, Horseweed [7, 21]: 85
- Plant response rating, Horseweed [7, 22]: 0
- Plant response rating, Horseweed [7, 23]: 0
- Plant response rating, Kochia (kochia (Kochia scoparia); [16]): 90
- Plant response rating, Kochia (kochia (Kochia scoparia); [17]): 35
- Plant response rating, Kochia (kochia (Kochia scoparia); [18]): 100
- Plant response rating, Kochia (kochia (Kochia scoparia); [19]): 100
- Plant response rating, Kochia (kochia (Kochia scoparia); [20]): 80
- Plant response rating, Kochia (kochia (Kochia scoparia); [21]): 80
- Plant response rating, Kochia (kochia (Kochia scoparia); [22]): 0
- Plant response rating, Kochia (kochia (Kochia scoparia); [23]): 0
- Plant response rating, Nightshade [8, 24]: 98
- Plant response rating, Nightshade [8, 25]: 98
- Plant response rating, Nightshade [8, 26]: 0
- Plant response rating, Nightshade [8, 27]: 50
- Plant response rating, Panicum, Fall [9, 16]: 70
- Plant response rating, Panicum, Fall [9, 17]: 90
- Plant response rating, Panicum, Fall [9, 18]: 80
- Plant response rating, Panicum, Fall [9, 19]: 98
- Plant response rating, Panicum, Fall [9, 20]: 40
- Plant response rating, Panicum, Fall [9, 21]: 60
- Plant response rating, Panicum, Fall [9, 22]: 25
- Plant response rating, Panicum, Fall [9, 23]: 65
- Plant response rating, Ragweed [10, 16]: 90
- Plant response rating, Ragweed [10, 17]: 95
- Plant response rating, Ragweed [10, 18]: 95
- Plant response rating, Ragweed [10, 19]: 98
- Plant response rating, Ragweed [10, 20]: 70
- Plant response rating, Ragweed [10, 22]: 50
- Plant response rating, Ragweed [10, 23]: 65
- Plant response rating, Sandbur [11, 17]: 70
- Plant response rating, Sandbur [11, 18]: 50
- Plant response rating, Sandbur [11, 19]: 75
- Plant response rating, Sandbur [11, 20]: 30
- Plant response rating, Sandbur [11, 21]: 40
- Plant response rating, Sandbur [11, 22]: 0
- Plant response rating, Sandbur [11, 23]: 15
- Plant response rating, Surinam Grass [12, 24]: 10
- Plant response rating, Surinam Grass [12, 25]: 70
- Plant response rating, Surinam Grass [12, 26]: 0
- Plant response rating, Surinam Grass [12, 27]: 0
- Plant response rating, Waterhemp [13, 17]: 90
- Plant response rating, Waterhemp [13, 18]: 90
- Plant response rating, Waterhemp [13, 19]: 100
- Plant response rating, Waterhemp [13, 20]: 60
- Plant response rating, Waterhemp [13, 21]: 70
- Plant response rating, Waterhemp [13, 22]: 70
- Plant response rating, Waterhemp [13, 23]: 80
- Plant response rating, Waterhemp_RES1 [14, 28]: 80
- Plant response rating, Waterhemp_RES1 [14, 29]: 80
- Plant response rating, Waterhemp_RES1 [14, 25]: 100
- Plant response rating, Waterhemp_RES2 [15, 28]: 40
- Plant response rating, Waterhemp_RES2 [15, 29]: 50
- Plant response rating, Waterhemp_RES2 [15, 25]: 70
